For series [1], the system named is hBMEC cell monolayer (BBB cell model). The series is described as follows: Transport study in a BBB cell model (bidirectional transwell permeability). As to conditions: BBB cell model, within 120 min. In kind it is in vitro ADME, Human. As for the experimental part: (§1) The hBMECs cells were seeded at a density of 3 × 10^5 cells per well on the transwell plates in EMC. Apical side volumes were 0.5 mL, and the medium was changed every day. Basal side volumes were 1.5 mL, and the medium was changed every other day. The medium was changed until confluent monolayers were formed. […] TEER provides information on ion current resistance across cell monolayers related to the integrity of tight junctions between cells. When the TEER reached the maximum value, the cell monolayer was used for the transport assay.
(§2) The permeability experiments were carried out bi-directionally, with working solutions containing one test component, TSI (1.25 μg/mL), DTSI (0.15 μg/mL), CTS (1.25 μg/mL), CFA (10 μg/mL), PAL (10 μg/mL), and PCTA (20 μg/mL). Aliquots of the […] compartment were collected after several time points (15, 30, 60, and 120 min) and replaced with drug-free assay buffer. The transwell plates were incubated on an orbital shaker at 37 °C for the entire experimental time. All experiments were performed in triplicate, and withdrawn samples were stored in −80 °C fridge before LC-MS/MS analysis.
(§3) For the BBB cell model, the apparent permeability coefficient, Papp in apical-to-basolateral (AP-BL) or basolateral-to-apical (BL-AP) direction, and efflux rate of each component were subsequently calculated according to the following equation: Papp = {dQ/dt} × {1/ (A × C0)},(1) where Q is the accumulation quantity of the compound in the receiver side (μg), dQ /dt is the rate of appearance of the compound in the receiver side (μg /s), C0 is the initial concentration in the donor side […], and A is the surface area of the membrane insert (cm^2). Furthermore, efflux ratios (ER) were calculated according to the following equation: ER = Papp (BL-AP)/Papp (AP-BL),(2) where Papp (BL-AP) and Papp (AP-BL) are the Papp values in the direction basolateral-to-apical and apical-to-basolateral, respectively.

Assay in series [2]: as above
In kind it is in vitro ADME, Human. As to conditions: human; for efflux ratio at 120 min: ER = Papp (BL-AP)/Papp (AP-BL), BBB cell model; for Papp B→A at 120 min: hBMEC monolayer on transwell, basolateral-to-apical, within 120 min, 37 °C, Mean ± SD, n = 3. As for the experimental part:
as §1, §2, §3

Series [3] relates to endothelial cell monolayers. Also on record: method as in PMID 17504224. Particulars: facilitated efflux from the abluminal side to luminal side; cited from earlier work.
The test system of another series is BBB. On the set-up: method as in PMID 26683637. As to conditions: cited from earlier work.
Series [4] in a line: Stability of analytes in HBSS (autosampler 24 h; −80 °C 15 days). In kind it is physicochemical. Particulars: HBSS system. As for the experimental part:
Stability was evaluated by analyzing LQC, MQC, and HQC concentrations at autosampler for 24 h and −80 °C for 15 days with five replicates. Stability was expressed in terms of accuracy (RE) and coefficient of variation (RSD). The samples were considered stable if accuracy (RE) was within ±15% of the nominal values and precision (RSD) was less than 15%.

Consider 7 compounds from PMC8838936, “Simultaneous Determination of Seven Lipophilic and Hydrophilic Components in Salvia miltiorrhiza Bunge by LC-MS/MS Method and Its Application to a Transport Study in a Blood-Brain-Barrier Cell Model” (Molecules, 2022).

Consider `O=C(O)/C=C/c1ccc(O)c(O)c1` [CFA, caffeic acid], for which the “Absorption in the BBB model (class by Papp (AP-BL))” value (shortened to “Absorption in the BBB model”) in series [1] was “easily absorbed”. For the same compound, in series [2], the efflux ratio at 120 min was determined as 1.05 and the Papp B→A at 120 min was 22.5 ×10⁻⁶ cm/s.
As to `C[C@H]1COC2=C1C(=O)C(=O)c1c2ccc2c1CCCC2(C)C` [CTS, cryptotanshinone], the “Absorption in the BBB model” value in series [1] is listed as “moderate absorption”. Also, in series [2], the efflux ratio at 120 min stood at 1.03 and the Papp B→A at 120 min is 5.12 ×10⁻⁶ cm/s. For the same compound, the “Transport of CTS in endothelial cell monolayers” value in series [3] was “polarized transport”.
As for `Cc1cccc2c3c(ccc12)C1=C(C(=O)C3=O)[C@@H](C)CO1` [DTS I, dihydrotanshinone I], the “Absorption in the BBB model” value in series [1] is “moderate absorption”. Moreover, in series [2], the efflux ratio at 120 min is 0.779 and the apparent permeability from basolateral to apical (Papp B→A) at 120 min turned out to be 3.62 ×10⁻⁶ cm/s.
As to `O=Cc1ccc(O)c(O)c1` [PAL, protocatechuic aldehyde], the “Absorption in the BBB model” value in series [1] is reported as “easily absorbed”. Moreover, in series [2], the efflux ratio at 120 min was found to be 0.805 and the basolateral-to-apical permeability (Papp B→A) at 120 min was determined as 12.2 ×10⁻⁶ cm/s.
As for `O=C(O)c1ccc(O)c(O)c1` [PCTA, protocatechuic acid], the “Absorption in the BBB model” value in series [1] is listed as “easily absorbed”. Further, in series [2], the efflux ratio at 120 min is 0.946 and the basolateral-to-apical permeability (Papp B→A) at 120 min came out at 41.3 ×10⁻⁶ cm/s.
For `Cc1coc2c1C(=O)C(=O)c1c-2ccc2c1CCCC2(C)C` [TS IIA, tanshinone IIA], the “Absorption in the BBB model” value in series [1] is given as “difficult to be absorbed”. For the same compound, in series [2], the efflux ratio at 120 min was determined as 0.673 and the Papp B→A at 120 min is 0.0253 ×10⁻⁶ cm/s. Moreover, the “Effect on disruption of the BBB” value in the series with BBB is recorded as “suppress disruption of the BBB”.
On to `CCC(C)(C)C(=O)O[C@H]1C[C@@H](C)C=C2C=C[C@H](C)[C@H](CC[C@@H]3C[C@@H](O)CC(=O)O3)[C@H]21` [simvastatin], for which the “Stability in HBSS (in words)” value in series [4] is “very unstable”.
